Experimental data: the NIST ThermoML archive (doi:10.1021/je050428j)
± gives the expanded uncertainty stated by the source.

Settings: 298.15 K; 101.33 kPa; Liquid; Vibrating tube method

Row | SMILES | mass density
1 | CN(C)C=O [dimethylformamide] | 943.875 ± 0.25 kg/m3
2 | CCCCCCC [heptane] | 679.627 ± 0.27 kg/m3
3 | CCCCCCCC [octane] | 698.636 ± 0.41 kg/m3
4 | CC(=O)N(C)C [N,N-dimethylethanamide] | 936.214 ± 0.48 kg/m3
5 | CCCCCC [hexane] | 655.248 ± 0.28 kg/m3
6 | CCCCCCCCC [nonane] | 714.064 ± 0.41 kg/m3
